Data: patent US20240327412A1, “FACTOR XIIA INHIBITORS” (KALVISTA PHARMACEUTICALS LIMITED, priority 2021, published 2024)

Molecular target: T1, Human Factor XIIa (Homo sapiens, UniProt P00748)
T1 construct: Proteolytic cleavage of FXII to heavy and light chains of FXIIa dramatically increases catalytic activity; purchased Enzyme Research Laboratories
T1 sequence (P00748 373-615 limits assumed): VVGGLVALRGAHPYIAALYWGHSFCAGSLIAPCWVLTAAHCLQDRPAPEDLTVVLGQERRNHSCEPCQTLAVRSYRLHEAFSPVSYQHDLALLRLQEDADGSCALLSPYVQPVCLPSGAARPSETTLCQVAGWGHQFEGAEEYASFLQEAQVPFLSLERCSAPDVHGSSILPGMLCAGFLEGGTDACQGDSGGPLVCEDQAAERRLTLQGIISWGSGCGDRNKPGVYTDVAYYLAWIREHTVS
T1 sequence (P00748 20-372 partner limits assumed): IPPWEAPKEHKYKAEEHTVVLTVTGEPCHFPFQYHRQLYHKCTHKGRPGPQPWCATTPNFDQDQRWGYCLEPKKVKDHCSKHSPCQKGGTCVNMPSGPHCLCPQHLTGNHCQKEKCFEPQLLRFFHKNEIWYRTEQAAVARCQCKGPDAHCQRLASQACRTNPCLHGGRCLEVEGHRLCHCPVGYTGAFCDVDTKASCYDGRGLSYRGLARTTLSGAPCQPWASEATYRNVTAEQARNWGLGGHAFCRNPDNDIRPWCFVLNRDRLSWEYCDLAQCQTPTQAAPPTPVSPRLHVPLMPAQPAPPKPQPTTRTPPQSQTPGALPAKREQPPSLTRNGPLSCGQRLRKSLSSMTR
Test: Determination of FXIIa inhibition (fluorogenic substrate H-DPro-Phe-Arg-AFC, IC50 assay)
Type: biochemical
Conditions: substrate at Km concentration, 25° C.; category scale; read-out: Human FXII IC50 (nm)
Description: In vitro inhibition of Factor XIIa was determined using an IC50 assay based on standard literature methods (see e.g Baeriswyl et al., ACS Chem. Biol., 2015, 10 (8) 1861; Bouckaert et al., European Journal of Medicinal Chemistry 110 (2016) 181). Human Factor XIIa (Enzyme Research Laboratories) was incubated at 25° C. with the fluorogenic substrate H-DPro-Phe-Arg-AFC (Peptide Protein Science) and various concentrations of the test compound. Protease activity was measured by monitoring the accumulation of liberated fluorescence from the substrate over 5 min at 25° C. The linear rate of fluorescence increase per minute was expressed as percentage (%) activity. The Km for the cleavage of the substrate by FXIIa was determined by standard transformation of the Michaelis-Menten equation. The compound inhibitor assays were performed at substrate Km concentration. IC50 values were calculated as the concentration of inhibitor giving 50% inhibition (IC50) of the uninhibited enzyme activity (100%).

SMILES | IC50 [nM]
Cn1ccc(OCC23CN(C(=O)OCc4ccc(F)c(F)c4)C(CNc4cccc5c(N)nccc45)(C2)C3)cc1=O [Example 12020, 3,4-difluorobenzyl 1-(((1-aminoisoquinolin-5-yl)amino)methyl)-4-(((1-methyl-2-oxo-1,2-dihydropyridin-4-yl)oxy)methyl)-2-azabicyclo[2.1.1]hexane-2-carboxylate] | 100 to 300
COc1cccc(CCC(=O)N2CC3(COc4ccn(C)c(=O)c4)CC2(CNc2cccc4c(N)nccc24)C3)c1 [Example 12042, 4-((1-(((1-aminoisoquinolin-5-yl)amino)methyl)-2-(3-(3-methoxyphenyl)propanoyl)-2-azabicyclo[2.1.1]hexan-4-yl)methoxy)-1-methylpyridin-2(1H)-one] | 10 to 100
Cn1ccc(OCC23CN(C(=O)Cc4ccc5occc5c4)C(CNc4cccc5c(N)nccc45)(C2)C3)cc1=O [Example 12034, 4-((1-(((1-Aminoisoquinolin-5-yl)amino)methyl)-2-(2-(benzofuran-5-yl)acetyl)-2-azabicyclo[2.1.1]hexan-4-yl)methoxy)-1-methylpyridin-2(1H)-one] | 10 to 100
CC(C)c1cc(OCC23CCOC(CNc4cccc5c(N)nccc45)(C2)C3)cc(=O)n1C [Example 10949, 4-((1-(((1-aminoisoquinolin-5-yl)amino)methyl)-2-oxabicyclo[3.1.1]heptan-5-yl)methoxy)-6-isopropyl-1-methylpyridin-2(1H)-one] | 300 to 1000
Cn1ccc(OCC23CN(C(=O)CCc4ccc5cccnc5c4)C(CNc4cccc5c(N)nccc45)(C2)C3)cc1=O [Example 12055, 4-((1-(((1-aminoisoquinolin-5-yl)amino)methyl)-2-(3-(quinolin-7-yl)propanoyl)-2-azabicyclo[2.1.1]hexan-4-yl)methoxy)-1-methylpyridin-2(1H)-one] | 10 to 100
Cn1ccc(OCC23CN(C(=O)Cc4cccc5[nH]ccc45)C(CNc4cccc5c(N)nccc45)(C2)C3)cc1=O [Example 12040, 4-((2-(2-(1H-indol-4-yl)acetyl)-1-(((1-aminoisoquinolin-5-yl)amino)methyl)-2-azabicyclo[2.1.1]hexan-4-yl)methoxy)-1-methylpyridin-2(1H)-one] | 10 to 100
Cn1ccc(OCC23CN(C(=O)CCc4cccc5cnccc45)C(CNc4cccc5c(N)nccc45)(C2)C3)cc1=O [Example 12047, 4-((1-(((1-aminoisoquinolin-5-yl)amino)methyl)-2-(3-(isoquinolin-5-yl)propanoyl)-2-azabicyclo[2.1.1]hexan-4-yl)methoxy)-1-methylpyridin-2(1H)-one] | 10 to 100
Nc1nccc2c(NCC34CC(COc5cnccn5)(CCO3)C4)cccc12 [Example 10976, N5-((5-((pyrazin-2-yloxy)methyl)-2-oxabicyclo[3.1.1]heptan-1-yl)methyl)isoquinoline-1,5-diamine] | 10000 to 40000
Cn1nncc1OCC12CCOC(CNc3cccc4c(N)nccc34)(C1)C2 [Example 10946, N5-((5-(((1-methyl-1H-1,2,3-triazol-5-yl)oxy)methyl)-2-oxabicyclo[3.1.1]heptan-1-yl)methyl)isoquinoline-1,5-diamine] | 3000 to 10000
Cn1ccc2cc(OCC34COC(CNc5cccc6c(N)nccc56)(C3)C4)ccc2c1=O [Example 6643, 6-((1-(((1-aminoisoquinolin-5-yl)amino)methyl)-2-oxabicyclo[2.1.1]hexan-4-yl)methoxy)-2-methylisoquinolin-1(2H)-one] | 300 to 1000
Nc1nccc2c(NCC34CC(COc5ccn6ncnc6c5)(C3)C4)cccc12 [Example 1110, N5-((3-(([1,2,4]triazolo[1,5-a]pyridin-7-yloxy)methyl)bicyclo[1.1.1]pentan-1-yl)methyl)isoquinoline-1,5-diamine] | 3000 to 10000
Cn1ccc(OCC23CC(CNc4cccc5c(N)nccc45)(CN2C(=O)CCc2ccccc2)C3)cc1=O [Example 13008, 4-((4-(((1-aminoisoquinolin-5-yl)amino)methyl)-2-(3-phenylpropanoyl)-2-azabicyclo[2.1.1]hexan-1-yl)methoxy)-1-methylpyridin-2(1H)-one] | 300 to 1000
Nc1nccc2c(NCC34CC(COc5ccc6ncc(C7CC7)n6c5)(CO3)C4)cccc12 [Example 6639, N5-((4-(((3-cyclopropylimidazo[1,2-a]pyridin-6-yl)oxy)methyl)-2-oxabicyclo[2.1.1]hexan-1-yl)methyl)isoquinoline-1,5-diamine] | 10 to 100
Cn1ccc(OCC23CN(C(=O)NCc4ccccc4)C(CNc4c(F)ccc5c(N)nccc45)(C2)C3)cc1=O [Example 12072, 1-(((1-amino-6-fluoroisoquinolin-5-yl)amino)methyl)-N-benzyl-4-(((1-methyl-2-oxo-1,2-dihydropyridin-4-yl)oxy)methyl)-2-azabicyclo[2.1.1]hexane-2-carboxamide] | 300 to 1000
Cn1ccc(OCC23CC(CNc4cccc5c(N)nccc45)(CN2C(=O)OCc2ccccc2Cl)C3)cc1=O [Example 13020, 2-chlorobenzyl 4-(((1-aminoisoquinolin-5-yl)amino)methyl)-1-(((1-methyl-2-oxo-1,2-dihydropyridin-4-yl)oxy)methyl)-2-azabicyclo[2.1.1]hexane-2-carboxylate] | 10 to 100
CCn1c(C)cc(OCC23CCOC(CNc4cccc5c(N)nccc45)(C2)C3)cc1=O [Example 10964, 4-((1-(((1-aminoisoquinolin-5-yl)amino)methyl)-2-oxabicyclo[3.1.1]heptan-5-yl)methoxy)-1-ethyl-6-methylpyridin-2(1H)-one] | 10 to 100
Nc1nccc2c(NCC34CC(NC(=O)c5ccc6nnc(C(F)F)n6c5)(C3)C4)cccc12 [Example 1132, N-(3-(((1-aminoisoquinolin-5-yl)amino)methyl)bicyclo[1.1.1]pentan-1-yl)-3-(difluoromethyl)-[1,2,4]triazolo[4,3-a]pyridine-6-carboxamide] | 10000 to 40000
Cn1ccc(OCC23CC(CNc4cccc5c(N)nccc45)(CN2)C3)cc1=O [Example 13007, 4-((4-(((1-aminoisoquinolin-5-yl)amino)methyl)-2-azabicyclo[2.1.1]hexan-1-yl)methoxy)-1-methylpyridin-2(1H)-one] | 100 to 300
Nc1nccc2c(NCC34CC(COc5cccnc5)(CCO3)C4)cccc12 [Example 10968, N5-((5-((pyridin-3-yloxy)methyl)-2-oxabicyclo[3.1.1]heptan-1-yl)methyl)isoquinoline-1,5-diamine] | 3000 to 10000
Nc1nccc2c(NCC34CC(COc5ccc6c(c5)C(=O)NC6=O)(CO3)C4)cccc12 [Example 6636, 5-((1-(((1-aminoisoquinolin-5-yl)amino)methyl)-2-oxabicyclo[2.1.1]hexan-4-yl)methoxy)isoindoline-1,3-dione] | 3000 to 10000
Cn1c(C(F)(F)F)cc(OCC23CCOC(CNc4cccc5c(N)nccc45)(C2)C3)cc1=O [Example 10951, 4-((1-(((1-aminoisoquinolin-5-yl)amino)methyl)-2-oxabicyclo[3.1.1]heptan-5-yl)methoxy)-1-methyl-6-(trifluoromethyl)pyridin-2(1H)-one] | 300 to 1000
Cn1ccc(OCC23CN(C(=O)CCc4ccc(=O)[nH]c4)C(CNc4cccc5c(N)nccc45)(C2)C3)cc1=O [Example 12054, 4-((1-(((1-aminoisoquinolin-5-yl)amino)methyl)-2-(3-(6-oxo-1,6-dihydropyridin-3-yl)propanoyl)-2-azabicyclo[2.1.1]hexan-4-yl)methoxy)-1-methylpyridin-2(1H)-one] | 10 to 100
Cn1ccc(OCC23CN(C(=O)OC(C)(C)C)C(CNc4cccc5c(N)nccc45)(C2)C3)cc1=O [Example 12027, tert-butyl 1-(((1-aminoisoquinolin-5-yl)amino)methyl)-4-(((1-methyl-2-oxo-1,2-dihydropyridin-4-yl)oxy)methyl)-2-azabicyclo[2.1.1]hexane-2-carboxylate] | 100 to 300
CN1CCc2cc(OCC34CCOC(CNc5cccc6c(N)nccc56)(C3)C4)ccc2C1=O [Example 10939, 6-((1-(((1-aminoisoquinolin-5-yl)amino)methyl)-2-oxabicyclo[3.1.1]heptan-5-yl)methoxy)-2-methyl-3,4-dihydroisoquinolin-1(2H)-one] | 300 to 1000
CN1Cc2cc(OCC34CN(C(=O)OCc5ccccc5)C(CNc5cccc6c(N)nccc56)(C3)C4)ccc2C1=O [Example 12018, benzyl 1-(((1-aminoisoquinolin-5-yl)amino)methyl)-4-(((2-methyl-1-oxoisoindolin-5-yl)oxy)methyl)-2-azabicyclo[2.1.1]hexane-2-carboxylate] | 10 to 100
